Laboratory results published in paper PMC10488391, “Membrane-Targeting Perylenylethynylphenols Inactivate Medically Important Coronaviruses via the Singlet Oxygen Photogeneration Mechanism” (Molecules, 2023).
Read-outs that look alike come from different tables or passages of the source.

Legend:
SARS-CoV-2 [1] = experiment: Virus titer reduction assay; assay type: cell-based; details: for SI: SARS-CoV-2 EC50 and Vero cells CC50; for EC50: Severe acute respiratory syndrome coronavirus 2
[2] = Singlet oxygen generation quantum yield (SOSG fluorescence); assay type: physicochemical; details: in methanol, illumination 430–450 nm, 5.5 mW/cm^2, reference PS C1T11
Description: The ROS generation rate was estimated using the spectrofluorimetric method, based on the fluorescense changes of Singlet Oxigen Sensor Green (SOSG®, Lumiprobe, Cockeysville, MD, USA) in methanol solution. Oxidation of SOSG by singlet oxygen results in peroxide formation enhancing SOSG fluorescence.
Spectrophotometric measurements were performed in a Qpod 2e thermostated cuvette holder (Quantum Northwest, Liberty Lake, WA, USA) at 25 °C and with magnetic stirring (500 rpm). Absorption spectra were recorded using a MayaPro spectrophotometer (Ocean Optics, Orlando, FL, USA) and a stabilized white light source with a SLS201L tungsten lamp (Thorlabs, Newton, NJ, USA). The fluorescence of SOSG was measured with a Flame CCD spectrometer (Ocean Optics, Orlando, FL, USA) in StripChart mode (530 nm), excitation of the SOSG fluorescence was carried out with a PLS-510 LED laser (InTop, St. Petersburg, Russia) in CW mode at the wavelength of 510 nm.
To study photosensitized ^1O2 generation, we used a white MCWHLP1 LED (Thorlabs, USA) with filters to limit the radiation to the 430–450 nm range (5.5 mW/cm^2). Illumination was uniform over the entire volume of the cuvette, to prevent artifacts associated with the diffusion of non-reacted components from entering into the illuminated volume of the cuvette. Illumination was performed in pulsed mode, with 1 s of illumination followed by 5 s of dark adaptation, during which the fluorescence spectrum of the photosensitizer-SOSG solution was recorded.
Singlet oxygen generation quantum yield for compounds 3a–3f in methanol was calculated according to Equation (1):(1) φΔ=φΔ0∗r/r^0(1−10^−A^0)/(1−10^−A), where r is the rate of SOSG fluorescence increase in solution of the photosensitizer (PS), A is the PS absorbance in the region of illumination, and index 0 represents reference PS (we used perylene compound C1T11 [65] with φΔ0=0.59 in methanol).

[3] = Cytotoxicity assay (Cell Counting Kit-8); assay type: cell-based; details: African green monkey, Vero cells, confluent monolayer; 48 h at 37 °C in the dark; compounds 0–10 µM
Description: Vero cells were cultured for 24 h in 96-well plates to form a confluent monolayer, and then were treated with the tested compounds at concentrations of 0–10 µM. After 48 h of cultivation in the dark at 37 °C under 5% CO2, the cell culture medium was aspirated. The potential cytotoxicity of the tested derivatives was determined based on cell viability using Cell Counting Kit-8 (Dojindo Molecular Technologies, Munich, Germany) according to the manufacturer’s instructions (Figure 5A).

[4] = Light-induced cytotoxicity (photocytotoxicity); assay type: cell-based; details: cat (Felis catus), CRFK cells, confluent monolayer; blue light 465–480 nm, 30 mW/cm^2, 10 min; then 48 h incubation; read-out: Cell viability of irradiated CRFK cells
[5] = Cytotoxicity to CRFK cells under normal lighting; assay type: cell-based; details: cat (Felis catus), CRFK cells (kidney cortex), confluent monolayer
Description: Furthermore, we investigated the mechanism of antiviral activity of perylenylethynylphenols using FIPV, another member of the Coronaviridae family, which is an important veterinary pathogen.
To determine the light-induced cytotoxicity of the compounds, CRFK cells were cultured in 96-well plates for 24 h to form a confluent monolayer and then treated with the tested compounds at concentrations ranging from 0 to 10 µM in daylight. Subsequently, cells treated with the compounds were irradiated with LEDs (465–480 nm, 30 mW/cm^2) for 10 min at RT (Figure 7A, top panel). As a negative control, CRFK cells were treated with the compounds in daylight and then incubated in the dark at RT for 10 min (Figure 7A, bottom panel). Subsequently, both irradiated and non-irradiated cell monolayers were incubated for 48 h in the dark at 37 °C. After incubation, the potential photocytotoxicity of the compounds was determined using Cell Counting Kit-8 (Dojindo Molecular Technologies, Munich, Germany) according to the manufacturer’s instructions.

FIPV [6] = experiment: Photodynamic inactivation of FIPV virions; assay type: cell-based, feline infectious peritonitis virus
Description: Considering that perylenylethynylphenols are potent ^1O2 photogenerators, we investigated their coronavirus inactivation activity after the irradiation of compound-pretreated FIPV with blue light (465–480 nm, with an approximate power density of 30 mW/cm^2; note: the 465–480 nm wavelength is close to the excitation maxima of perylenylethynylphenols). In this experiment, (i) compound 3a and the virus were mixed in daylight and irradiated with blue light for 10 min (Figure 7D, top panel), or (ii) the compound and virus were mixed in daylight and incubated in the dark for 10 min (Figure 7D, medium panel). Then, both samples (irradiated and non-irradiated) were incubated for 1 h at 37 °C in the dark, and the viability of FIPV was determined by a plaque assay. […] We speculate that the observed enhancement of antiviral (virus inactivation) activity of 3a is due to increased ^1O2 photogeneration during sample irradiation.
To completely eliminate the influence of daylight on the anti-FIPV activity of perylenylethynylphenols, we performed a parallel experiment in a dark room. In this experiment, all manipulations, including sample preparation and plaque assays, were performed under red light (624 ± 20 nm) (Figure 7D, bottom panel).
Virus in DMEM (titer of 10^6 PFU/mL) was mixed with 3a (0–10 µM) in a microtiter plate in daylight and irradiated for 10 min at RT with LEDs (465–480 nm) at an approximate power density of 30 mW/cm^2 (Figure 7D, top panel). As a negative control, the virus was mixed with 3a (0–10 µM) in daylight and incubated with the compound for 10 min in the dark at RT (Figure 7D, middle panel). Subsequently, both irradiated and non-irradiated virus samples were incubated in the dark at 37 °C for an additional 60 min. Viral titers were determined by plaque assays (also in daylight). […] The virus sample was mixed with 3a (0–10 µM), incubated at 37 °C for 60 min, and the viability of the virus was assessed by plaque assays (Figure 7D, bottom panel). […]

FIPV [7] = experiment: Anti-FIPV activity in CRFK cells (plaque assay); assay type: cell-based, feline infectious peritonitis virus; details: Alphacoronavirus 1, normal lighting (preparation in daylight, cultivation in the dark)
[8] = Interaction with liposomes (steady-state fluorescence); assay type: physicochemical; details: 10 µM in PBS; 520 nm; after the complete incubation period (3500 s)
Description: The affinity of 3a to lipid membranes was further confirmed using a liposomal (protein-free) membrane model system (Figure 6D,E). […] The kinetics of liposome penetration of 3a were measured as the steady-state fluorescence response at 520 nm, which reached maximal intensity of about 4 × 10^5 CPE after the complete incubation period (3500 s) (Figure 6E).
The samples’ steady-state fluorescence characteristics were measured in L-format using a Chronos DFD Fluorescence spectrometer (ISS, Baltimore, MD, USA) equipped with a 300 W Cermax xenon arc lamp (ISS, Baltimore, MD, USA), a concave holographic grating monochromator, and a PMT detector. The required amount of each sample was diluted in DMSO and measured in a 1-cm quartz cuvette, at a constant temperature of 25 °C. The resulting data were evaluated using Vinci software version 2 (ISS, Baltimore, MD, USA) and correlated to the utilized optical configuration.
The kinetics of the incorporation of compounds into liposome membrane models were determined using steady-state fluorescence spectroscopy at a constant excitation and emission wavelength, according to the corresponding sample excitation and emission maxima. We added 50 μL of LNP suspension to 10 µM of the analyte in PBS and monitored the increase in fluorescence intensity over the time range […].

PS cells = experiment: Confocal microscopy of penetration into cellular membranes; assay type: cell-based, porcine; details: 10 µM
Description: Confocal microscopy was used to study the penetration of compound 3a into cellular membranes. PS cells were treated with 3a (10 µM) in a µ-Slide 8 Well (IbidiGmbH, Gräfelfing, Germany) in the dark for 60 min at 37 °C. The samples were analyzed for fluorescent signal distribution and intensity using a Leica SP8 confocal microscope (Leica, Wetzlar, Germany) as described previously.

SARS-CoV-2 [9] = experiment: Virucidal (virus-inactivating) activity, plaque assay; assay type: cell-based; details: 10 µM; 120 min pre-incubation in the dark; starting titers 10^4, 10^6 and 10^7 PFU/mL
[10] = design: method as in PMID 37339718; details: in methanol; cited from earlier work
[11] = SARS-CoV-2 in Vero cells, normalized log-transformed response, read-out: App. EC50, calculated from log-transformed viral titers (converted)
[12] = Vero cells, MOI 0.1, 48 h p.i., normal lighting, 50% reduction in viral titer, read-out: SARS-CoV-2 EC50

Compound Oc1ccc(C#Cc2cc3cccc4c5cccc6cccc(c(c2)c34)c65)cc1 [Compound 3d, 4-(Perylen-2-ylethynyl)phenol] has an SI (SARS-CoV-2 [1]) of over 16, an EC50 (SARS-CoV-2 [1]; [11]) of 2220 nM and an EC50 (SARS-CoV-2 [1]; [12]) of 614 nM. The “ϕΔ(1O2), singlet oxygen generation quantum yield” value [2] was 0.297 and the CC50 at 48 h [3] was over 10000 nM.

Compound Oc1ccc(C#Cc2ccc3c4cccc5cccc(c6cccc2c63)c54)cc1Br [Compound 3c, 4-(Perylen-3-ylethynyl)-2-bromophenol] has an SI (SARS-CoV-2 [1]) of over 44, an EC50 (SARS-CoV-2 [1]; [11]) of 1100 nM and an EC50 (SARS-CoV-2 [1]; [12]) of 227 nM. The “ϕΔ(1O2), singlet oxygen generation quantum yield” value [2] was 0.282 and the CC50 at 48 h [3] was over 10000 nM.

For Oc1cccc(C#Cc2cc3cccc4c5cccc6cccc(c(c2)c34)c65)c1 [Compound 3e, 3-(Perylen-2-ylethynyl)phenol], the SI (SARS-CoV-2 [1]) was over 29, the EC50 (SARS-CoV-2 [1]; [11]) was 1580 nM and the EC50 (SARS-CoV-2 [1]; [12]) was 347 nM. The “ϕΔ(1O2), singlet oxygen generation quantum yield” value [2] was 0.460, the viability at 48 h [4] was over 100% and the CC50 at 48 h [3] was over 10000 nM.

With Oc1ccc(C#Cc2ccc3c4cccc5cccc(c6cccc2c63)c54)cc1 [Compound 3a, 4-(Perylen-3-ylethynyl)phenol] the CC50 at 48 h [5] was over 10000 nM, the “anti-FIPV activity under red light” value (FIPV [6]; dark room, all manipulations under red light (624 ± 20 nm), up to 10 µM) was “completely disappeared” and the “anti-FIPV (virus inactivation) activity after blue-light irradiation” value (FIPV [6]; mixed in daylight, blue light 465–480 nm, 30 mW/cm^2, 10 min, versus non-irradiated sample) was “significant increase in anti-FIPV activity”. The “FIPV-inactivation activity in the non-irradiated sample” value (FIPV [6]; mixed in daylight, incubated in the dark 10 min, then 1 h at 37 °C) was “some FIPV-inactivation activity”, the SI (SARS-CoV-2 [1]) was over 83 and the EC50 (SARS-CoV-2 [1]; [11]) was 1790 nM. For the same compound, the EC50 (SARS-CoV-2 [1]; [12]) was 120 nM, the “ϕΔ(1O2), singlet oxygen generation quantum yield” value [2] was 0.422 and the EC50 (FIPV [7]) was 196 nM. For the same compound, the “Maximal steady-state fluorescence intensity on liposome penetration” value [8] was “about 4 × 10^5 CPE”, the “Cytotoxicity or morphological abnormalities in PS cells” value (PS cells) was “no signs of cytotoxicity or morphological abnormalities” and the “Decrease in SARS-CoV-2 viral titer compared with control” value (SARS-CoV-2 [9]) was “more than two orders of magnitude”. It also gave a CC50 at 48 h [3] of over 10000 nM.

In the case of Oc1ccc(C#Cc2cc3cccc4c5cccc6cccc(c(c2)c34)c65)cc1Br [Compound 3f, 4-(Perylen-2-ylethynyl)-2-bromophenol], the SI (SARS-CoV-2 [1]) is reported as over 19, the EC50 (SARS-CoV-2 [1]; [11]) is reported as 2680 nM and the EC50 (SARS-CoV-2 [1]; [12]) is reported as 529 nM. For the same compound, the “ϕΔ(1O2), singlet oxygen generation quantum yield” value [2] was 0.332 and the CC50 at 48 h [3] was over 10000 nM.

In the case of Oc1cccc(C#Cc2ccc3c4cccc5cccc(c6cccc2c63)c54)c1 [Compound 3b, 3-(Perylen-3-ylethynyl)phenol], the SI (SARS-CoV-2 [1]) is reported as over 196, the EC50 (SARS-CoV-2 [1]; [11]) is reported as 506 nM and the EC50 (SARS-CoV-2 [1]; [12]) is reported as 51.1 nM. The “ϕΔ(1O2), singlet oxygen generation quantum yield” value [2] was 0.451, the viability at 48 h [4] was over 100% and the CC50 at 48 h [3] was over 10000 nM.

In the case of O=C(O)c1ccc(-c2ccc3c4cccc5cccc(c6cccc2c63)c54)s1 [Compound C1T11], the “φΔ0, singlet oxygen generation quantum yield of the reference PS” value [10] is given as 0.59.
